Data set [1] in a line: physchem.
Description: Dissociation constant, pKa of the compound
Data set [2] has as its target T1, Glucocorticoid receptor (Homo sapiens, UniProt P04150).
T1 sequence (P04150 whole entry): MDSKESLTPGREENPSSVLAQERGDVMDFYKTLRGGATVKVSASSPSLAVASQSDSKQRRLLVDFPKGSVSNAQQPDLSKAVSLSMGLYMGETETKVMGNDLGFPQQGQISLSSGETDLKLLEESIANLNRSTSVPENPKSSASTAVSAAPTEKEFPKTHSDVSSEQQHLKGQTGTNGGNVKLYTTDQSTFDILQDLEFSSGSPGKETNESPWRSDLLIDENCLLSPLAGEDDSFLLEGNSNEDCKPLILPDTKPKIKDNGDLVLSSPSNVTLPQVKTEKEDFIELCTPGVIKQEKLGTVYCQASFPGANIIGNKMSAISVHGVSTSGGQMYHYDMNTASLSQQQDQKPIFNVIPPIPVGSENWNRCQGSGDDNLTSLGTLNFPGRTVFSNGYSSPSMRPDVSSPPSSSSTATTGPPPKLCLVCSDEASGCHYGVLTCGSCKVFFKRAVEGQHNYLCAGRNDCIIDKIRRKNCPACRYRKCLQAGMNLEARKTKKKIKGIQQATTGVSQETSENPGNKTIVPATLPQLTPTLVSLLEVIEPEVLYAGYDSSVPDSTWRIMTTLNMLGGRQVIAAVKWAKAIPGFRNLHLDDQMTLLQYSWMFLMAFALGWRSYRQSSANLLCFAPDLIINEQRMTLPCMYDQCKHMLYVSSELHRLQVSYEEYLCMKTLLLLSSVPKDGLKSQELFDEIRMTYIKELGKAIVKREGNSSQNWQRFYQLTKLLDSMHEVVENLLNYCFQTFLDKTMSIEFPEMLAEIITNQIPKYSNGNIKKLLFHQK
Description: Induction of nuclear translocation of human recombinant ProLabel-tagged glucocorticoid receptor expressed in CHO-K1 cells after 3 hrs by luminescence method

Data set [3] has as its system RAW264.7. The experiment in a line: cells. The following applies: Mus musculus.
Description: Antiinflammatory activity in mouse RAW264.7 cells assessed as inhibition of LPS-induced nitric oxide release preincubated for 15 mins followed by LPS challenge measured after 18 hrs by Griess assay
The target of data set [4] is T1, Glucocorticoid receptor. The experiment in a line: biochemical.
Description: Displacement of [3H]dexamethasone from human recombinant glucocorticoid receptor expressed in insect cells after 24 hrs by scintillation proximity assay
The target in data set [5] is T2, Mineralocorticoid receptor (Homo sapiens, UniProt P08235).
T2 sequence (P08235 whole entry): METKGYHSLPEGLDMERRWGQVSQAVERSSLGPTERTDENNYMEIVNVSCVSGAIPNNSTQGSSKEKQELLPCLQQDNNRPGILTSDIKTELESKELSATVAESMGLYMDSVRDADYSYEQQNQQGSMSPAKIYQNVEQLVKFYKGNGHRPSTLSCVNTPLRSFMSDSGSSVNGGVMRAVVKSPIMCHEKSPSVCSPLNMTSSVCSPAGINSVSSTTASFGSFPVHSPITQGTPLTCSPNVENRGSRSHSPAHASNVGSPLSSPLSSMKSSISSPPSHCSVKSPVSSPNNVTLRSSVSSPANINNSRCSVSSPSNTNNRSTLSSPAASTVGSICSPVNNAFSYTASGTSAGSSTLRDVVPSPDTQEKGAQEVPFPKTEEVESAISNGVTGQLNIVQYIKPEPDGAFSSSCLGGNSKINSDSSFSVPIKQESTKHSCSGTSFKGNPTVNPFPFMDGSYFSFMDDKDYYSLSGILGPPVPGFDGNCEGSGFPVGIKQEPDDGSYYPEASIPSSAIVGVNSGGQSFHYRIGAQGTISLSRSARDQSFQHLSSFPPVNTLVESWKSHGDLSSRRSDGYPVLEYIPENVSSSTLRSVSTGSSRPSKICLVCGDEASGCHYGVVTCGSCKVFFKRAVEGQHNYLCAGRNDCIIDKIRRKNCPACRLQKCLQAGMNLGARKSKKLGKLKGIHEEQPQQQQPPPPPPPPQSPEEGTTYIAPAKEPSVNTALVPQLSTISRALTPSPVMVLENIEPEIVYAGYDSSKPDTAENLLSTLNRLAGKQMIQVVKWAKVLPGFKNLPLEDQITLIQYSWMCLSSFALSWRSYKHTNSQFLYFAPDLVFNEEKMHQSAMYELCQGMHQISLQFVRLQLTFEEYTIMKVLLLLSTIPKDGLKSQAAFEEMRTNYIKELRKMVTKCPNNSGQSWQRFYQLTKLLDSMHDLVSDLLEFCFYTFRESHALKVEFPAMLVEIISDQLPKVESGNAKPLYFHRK
Description: Induction of nuclear translocation of human recombinant ProLabel-tagged mineralocorticoid receptor expressed in CHO-K1 cells after 3 hrs by luminescence method

Structures are written as SMILES.

Results on 25 compounds are retold here after ChEMBL document CHEMBL4184331 (J Med Chem, 2018).

Compound `C[C@]12C=CC(=O)C=C1[C@@H](F)C[C@H]1[C@@H]3C[C@H]4CN(CC5CC5)C[C@@]4(C(=O)CO)[C@@]3(C)C[C@H](O)[C@@]12F` yielded a pKa in data set [1] of 7.83. The compound also had an EC50 in data set [2] of 15.2 nM.
The matching figures for `C[C@]12C=CC(=O)C=C1[C@@H](F)C[C@H]1[C@@H]3C[C@H]4CN(Cc5cccnc5)C[C@@]4(C(=O)CO)[C@@]3(C)C[C@H](O)[C@@]12F`: 4.11 and 63.9 nM.
As for `C[C@]12C=CC(=O)C=C1[C@@H](F)C[C@H]1[C@@H]3C[C@H]4CN(Cc5ccccc5)C[C@@]4(C(=O)CO)[C@@]3(C)C[C@H](O)[C@@]12F`, in data set [3], the half-inhibitory concentration (IC50) is 0.15 nM. In data set [4], the inhibition constant (Ki) came to 0.66 nM. In data set [1], the pKa stood at 6.96. In data set [2], the midpoint of the response, the EC50, lay at 1.7 nM.
In the case of `C[C@]12C=CC(=O)C=C1[C@@H](F)C[C@H]1[C@@H]3C[C@H]4CN(Cc5ccccc5)C[C@@]4(C(=O)NCc4ccccc4)[C@@]3(C)C[C@H](O)[C@@]12F`, the Ki in data set [4] turned out to be 9.8 nM. This compound gave a pKa in data set [1] of 7.05. Moreover, the EC50 in data set [2] turned out to be 50 nM.
`C[C@]12C=CC(=O)C=C1[C@@H](F)C[C@H]1[C@@H]3C[C@H]4CN(c5ccc(Cl)cc5)C[C@@]4(C(=O)CO)[C@@]3(C)C[C@H](O)[C@@]12F`: the IC50 in data set [3] stood at 0.66 nM. For the same compound, the affinity in data set [4], expressed as Ki, was 0.67 nM. This compound also returned a pKa in data set [1] of 4.42. This compound also yielded an EC50 in data set [2] of 8.5 nM.
Taken in the same sequence, the figures for `C[C@]12C=CC(=O)C=C1[C@@H](F)C[C@H]1[C@@H]3C[C@H]4CN(c5ccccc5)C[C@@]4(C(=O)CO)[C@@]3(C)C[C@H](O)[C@@]12F` were 0.34 nM, 0.39 nM, 8.82 and 1.3 nM.
Regarding `C[C@]12C=CC(=O)C=C1[C@@H](F)C[C@H]1[C@@H]3C[C@H]4CN(C(=O)OCc5ccccc5)C[C@@]4(C(=O)CO)[C@@]3(C)C[C@H](O)[C@@]12F`, in data set [4], the Ki is 0.66 nM. The compound also came in with an EC50 in data set [2] of 44.1 nM.
Consider `C[C@]12C=CC(=O)C=C1[C@@H](F)C[C@H]1[C@@H]3C[C@H]4CN(S(=O)(=O)c5cccs5)C[C@@]4(C(=O)CO)[C@@]3(C)C[C@H](O)[C@@]12F`, for which it took 3.68 nM to reach half-maximal inhibition in data set [3] (IC50). In data set [4], this compound gave a Ki of 0.66 nM. Further, in data set [2], the EC50 was 7.4 nM.
Turning to `C[C@]12C=CC(=O)C=C1[C@@H](F)C[C@H]1[C@@H]3C[C@H]4CN(Cc5cccc(Cl)c5)C[C@@]4(C(=O)OCF)[C@@]3(C)C[C@H](O)[C@@]12F`, the affinity in data set [4], expressed as Ki, was 0.57 nM. In data set [1], this compound displayed a pKa of 6.58. The same compound gave an EC50 in data set [2] of 20.8 nM.
The matching figures for `COC(=O)[C@@]12CN(Cc3ccccc3)C[C@@H]1C[C@H]1[C@@H]3C[C@H](F)C4=CC(=O)C=C[C@]4(C)[C@@]3(F)[C@@H](O)C[C@@]12C`: 0.71 nM, 7.12 and 5.7 nM.
For `CC(=O)[C@@]12CN(Cc3cccc(Cl)c3)C[C@@H]1C[C@H]1[C@@H]3C[C@H](F)C4=CC(=O)C=C[C@]4(C)[C@@]3(F)[C@@H](O)C[C@@]12C`, the IC50 in data set [3] came out at 1.4 nM. For the same compound, the inhibition constant Ki in data set [4] amounted to 0.57 nM. Also, the pKa in data set [1] is 6.9. Moreover, the EC50 in data set [2] worked out at 7.7 nM.
Regarding `CN(C)C(=O)[C@@]12CN(Cc3ccccc3)C[C@@H]1C[C@H]1[C@@H]3C[C@H](F)C4=CC(=O)C=C[C@]4(C)[C@@]3(F)[C@@H](O)C[C@@]12C`, the EC50 in data set [5] was greater than 3000 nM; in data set [2] it was 40.3 nM. The Ki in data set [4] was 1.1 nM. For the same compound, in data set [1], the pKa came to 7.3.
For `CC(C)CCN1C[C@@H]2C[C@H]3[C@@H]4C[C@H](F)C5=CC(=O)C=C[C@]5(C)[C@@]4(F)[C@@H](O)C[C@]3(C)[C@]2(C(=O)SCF)C1`, the EC50 in data set [5] was greater than 3000 nM; in data set [2] it was 57 nM. Moreover, in data set [4], the inhibition constant Ki stood at 4.8 nM.
Compound `Cc1ccc(CN2C[C@@H]3C[C@H]4[C@@H]5C[C@H](F)C6=CC(=O)C=C[C@]6(C)[C@@]5(F)[C@@H](O)C[C@]4(C)[C@]3(C(=O)CO)C2)cc1` came in with an IC50 in data set [3] of 0.16 nM. In addition, in data set [4], the affinity corresponds to a Ki of 0.52 nM. In data set [1], this compound returned a pKa of 7.11. Also, the EC50 in data set [2] was 8.4 nM.
The matching figures for `C[C@]12C=CC(=O)C=C1[C@@H](F)C[C@H]1[C@@H]3C[C@H]4CN(c5cccc(Cl)c5)C[C@@]4(C(=O)CO)[C@@]3(C)C[C@H](O)[C@@]12F`: 0.4 nM, 0.52 nM, 4.06 and 5.8 nM.
In data set [4], `C[C@]12C=CC(=O)C=C1[C@@H](F)C[C@H]1[C@@H]3C[C@H]4CN(Cc5ccccc5)C[C@@]4(C(=O)CF)[C@@]3(C)C[C@H](O)[C@@]12F` came in with a Ki of 0.52 nM. In data set [1], this compound yielded a pKa of 6.87. The compound further gave an EC50 in data set [2] of 3.4 nM.
`C[C@]12C=CC(=O)C=C1[C@@H](F)C[C@H]1[C@@H]3C[C@H]4CN(Cc5ccc(CSc6ccc(O)cc6)cc5)C[C@@]4(C(=O)CO)[C@@]3(C)C[C@H](O)[C@@]12F`: the EC50 in data set [5] was determined as 1.6 nM; in data set [2] it was 2.1 nM. In addition, the IC50 in data set [3] came out at 0.44 nM. Affinity in data set [4] was put at a Ki of 0.62 nM. The compound further registered a pKa in data set [1] of 6.95.
Regarding `C[C@]12C=CC(=O)C=C1[C@@H](F)C[C@H]1[C@@H]3C[C@H]4CN(Cc5ccc(Cl)cc5)C[C@@]4(C(=O)CO)[C@@]3(C)C[C@H](O)[C@@]12F`, the IC50 in data set [3] stood at 0.25 nM. This compound also showed a pKa in data set [1] of 6.72. The response in data set [2] was half-maximal at 1.3 nM (EC50).
Consider `C[C@]12C=CC(=O)C=C1[C@@H](F)C[C@H]1[C@@H]3C[C@H]4CN(Cc5cccc(Cl)c5)C[C@@]4(C(=O)SCF)[C@@]3(C)C[C@H](O)[C@@]12F`, for which the EC50 was greater than 3000 nM in data set [5] and 45 nM in data set [2].
In data set [3], `CC(C)CCN1C[C@@H]2C[C@H]3[C@@H]4C[C@H](F)C5=CC(=O)C=C[C@]5(C)[C@@]4(F)[C@@H](O)C[C@]3(C)[C@]2(C(=O)CO)C1` had a half-inhibitory concentration (IC50) of 0.22 nM. The compound further came in with a Ki in data set [4] of 1.9 nM. This compound came in with a pKa in data set [1] of 7.98. In addition, the EC50 in data set [2] is 3.4 nM.
Taken in the same sequence, the figures for `C[C@]12C=CC(=O)C=C1[C@@H](F)C[C@H]1[C@@H]3C[C@H]4CN(Cc5ccc6ccccc6n5)C[C@@]4(C(=O)CO)[C@@]3(C)C[C@H](O)[C@@]12F` were 11.9 nM, 0.71 nM, 3.42 and 31.2 nM.
In data set [2], `C[C@]12C=CC(=O)C=C1[C@@H](F)C[C@H]1[C@@H]3C[C@H]4CN(C(=O)c5ccccc5)C[C@@]4(C(=O)CO)[C@@]3(C)C[C@H](O)[C@@]12F` showed an EC50 of 248 nM.
In data set [1], `CN1C[C@@H]2C[C@H]3[C@@H]4C[C@H](F)C5=CC(=O)C=C[C@]5(C)[C@@]4(F)[C@@H](O)C[C@]3(C)[C@]2(C(=O)CO)C1` gave a pKa of 7.91. A half-maximal response in data set [2] (EC50) required 54.9 nM.
Regarding `Cc1cccc(CN2C[C@@H]3C[C@H]4[C@@H]5C[C@H](F)C6=CC(=O)C=C[C@]6(C)[C@@]5(F)[C@@H](O)C[C@]4(C)[C@]3(C(=O)CO)C2)c1`, the midpoint of inhibition in data set [3], the IC50, lay at 0.3 nM. The same compound showed an inhibition constant Ki in data set [4] of 0.52 nM. In data set [1], this compound registered a pKa of 7.27. Moreover, the half-maximal effective concentration (EC50) in data set [2] is 11.3 nM.
With `C[C@]12C=CC(=O)C=C1[C@@H](F)C[C@H]1[C@@H]3C[C@H]4CN(c5ccccc5)C[C@@]4(C(=O)CF)[C@@]3(C)C[C@H](O)[C@@]12F`, in data set [3], half-maximal inhibition (IC50) was put at 1.38 nM. Moreover, affinity in data set [4] was put at a Ki of 0.52 nM. Moreover, the pKa in data set [1] came to 8.74. The EC50 in data set [2] amounted to 3.2 nM.
